Like-named read-outs stand apart in the source and are kept apart here. Bounds are passed on as bounds.

The subject of one series is U937 cells. The series can be described thus: CCK8 viability assay in U937 cells. The format is cell-based, human. The following applies: CCK8, 48 hours treatment. The procedure:
The AML U937 cell line (ATCC) was grown in Roswell Park Memorial Institute (RPMI) 1640 Medium with the addition of 10% fetal bovine serum (FBS), 1% L‐glutamine, and 1% antibiotics (100 U/mL penicillin, 100 µg/mL streptomycin, and 250 ng/mL amphotericin‐B). Cells have been authenticated by STR profiling.
CCK8 was purchased from Elabscience and used according to manufacturer instructions, briefly: 100 µL of cell suspension was added to each well using a 96‐well microplate. Cells were then incubated at 37 °C, in a 5% CO2 incubator for 24 hours. Compounds were added to the cells and incubated for an additional 48 hours at 37 °C. Next, 10 µL of CCK‐8 Buffer was added to each well, and cells were incubated again for 4 hours. Next, 450 nm absorbance was measured using a TECAN microplate reader.

Another series concerns the target T1, BRD9 (Homo sapiens, UniProt Q9H8M2).
T1 construct: WB analysis showing BRD9 protein levels following 48‐hours treatments with compounds 2−8; endogenous in cells; host or cells: U937 (ATCC)
T1 sequence (Q9H8M2 1-597): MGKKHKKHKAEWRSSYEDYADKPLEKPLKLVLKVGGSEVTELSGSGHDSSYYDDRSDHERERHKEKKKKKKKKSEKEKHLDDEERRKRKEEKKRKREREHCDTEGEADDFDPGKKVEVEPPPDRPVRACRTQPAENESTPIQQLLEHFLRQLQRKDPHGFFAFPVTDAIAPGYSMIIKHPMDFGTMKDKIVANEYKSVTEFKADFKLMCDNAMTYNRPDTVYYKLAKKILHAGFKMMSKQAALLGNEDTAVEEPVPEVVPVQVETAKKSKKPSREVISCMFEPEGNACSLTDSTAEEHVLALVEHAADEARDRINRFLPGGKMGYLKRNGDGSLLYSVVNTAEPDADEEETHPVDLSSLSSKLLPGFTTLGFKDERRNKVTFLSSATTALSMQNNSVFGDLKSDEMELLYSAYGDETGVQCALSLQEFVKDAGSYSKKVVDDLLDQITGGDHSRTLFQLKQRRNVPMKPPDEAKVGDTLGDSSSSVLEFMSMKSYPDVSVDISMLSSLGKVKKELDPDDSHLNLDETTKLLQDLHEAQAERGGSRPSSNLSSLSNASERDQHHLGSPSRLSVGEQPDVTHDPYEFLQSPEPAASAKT
The series can be described thus: Western blotting of BRD9 protein levels in U937 cells. The format is cell-based. The following applies: 48 hours treatment, different concentrations, western blot. As for the experimental part: Cells have been authenticated by STR profiling.
Western blot was performed according to the previous protocol.^[ [71], [72] ^] U937 AML cells were pelleted and then lysed in RIPA buffer (1% Triton X‐100, 0.1% SDS, 150 mM NaCl, 1 mM EDTA pH 8, 10 mM Tris‐HCl pH 8) added with 1% protease inhibitor cocktail. The resulting lysate was subjected to centrifugation for 15 minutes at 4 °C. […] The protein signal was visualized by enhanced chemiluminescence method (ECL) through the Bio‐Rad Chemidoc machine. ImageJ software was used for densitometric analysis.
On the technique in general: In western blotting, separated proteins are transferred to a membrane and probed.

Series [1] deals with T2, BRD9 (BD1) (Homo sapiens, UniProt Q9H8M2).
T2 construct: BSP‐32519
T2 sequence (Q9H8M2 136-240 limits assumed): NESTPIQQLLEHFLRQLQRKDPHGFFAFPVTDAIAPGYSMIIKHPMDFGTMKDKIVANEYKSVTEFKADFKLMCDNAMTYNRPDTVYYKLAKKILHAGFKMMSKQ
Details: method as in PMID 34823196. The note with it: previously disclosed; read-out: IC50, affinity for BRD9; cited from earlier work.

Series [2] has as its target T2, BRD9 (BD1). Description: AlphaScreen assay, BRD9 (BD1) Inhibitor Screening Assay Kit. The format is binding. As for the experimental part:
The evaluation of the interaction between synthesized compounds and BRD9 was conducted using AlphaScreen Technology using an Enspire microplate analyzer (Perkin Elmer)^[ [70] ^] and the BRD9 (BD1) Inhibitor Screening Assay Kit (BSP‐32519) as reported by Colarusso et al.^[ [38], [39] ^] IC50 values were calculated by GraphPad Prism10 software.
On the technique in general: Alpha assays give light when donor and acceptor beads are brought close together.

Series [3] is described as follows: Microsomal stability in human liver microsomes (HLMs). The series is classed as in vitro ADME. The following applies: LC-MS/MS analysis. As for the experimental part:
In our assay we followed the loss of the test compounds over time under CYP‐mediated metabolic pathways. The extent of hepatic metabolism allowed us the determination of different pharmacokinetic parameters such as in vitro t1/2, CLint, in vitro and CLint, in vivo. In vitro t1/2 and CLint, in vitro of test compounds after liver microsomes incubation were calculated according to “well‐stirred” model. In the “well‐stirred” model, the liver is represented by a single compartment, where the unbound concentration of a drug leaving the liver is in equilibrium with the intracellular unbound concentration in the hepatocytes.^[ [53] ^] Predicted CLint, invivo values were determined using human PBSF.^[ [54] ^]
The microsomal stability of compounds 2 and 9 was assessed according to the previously described protocol.^[ [73] ^] […] The supernatants were collected and analyzed by LC‐MS/MS. The extent of metabolism is quantified as a percentage of the parent compound turnover. […] In vitro half‐lives (t1/2) were calculated using the expression t1/2 = 0.693/b, where b is the slope found in the linear fit of the natural logarithm of the fraction remaining of the parent compound versus incubation time. Microsomal intrinsic clearance was calculated as CLint , in vitro = (1000) × (0.693/t1/2)/0.5. […]

The nature of another series: Human plasma stability. The format is in vitro ADME. The note with it: incubation up to 120 minutes, 37 °C, read-out: compound recovery after incubation with human plasma. As for the experimental part:
The plasma stability of compounds 2 and 9 was evaluated. Briefly, the plasma was equilibrated at 37 °C, and biotransformation was initiated by adding the compound solution and mixing. At each specified time point (0, 60, and 120 minutes), test compounds were extracted into 200 µL ice‐cold methanol to stop degradation. Tolbutamide was added during the quenching phase. Finally, the concentration of the test compound was monitored by LC‐MS. The percentage of the test compound remaining at each individual time point was reported. The results are reported as mean ± SD from three independent experiments. Procaine and procainamide were used as controls.

For `CCc1nnc2c(Nc3cccc(NC(=O)CCOCCNc4cccc5c4C(=O)N(C4CCC(=O)NC4=O)C5=O)c3)nc3ccccc3n12` (centres unmarked) [compound 5], the U937 cell viability result with U937 cells is “strong reduction of cell viability”.

In the case of `CCc1nnc2c(Nc3cccc(NC(=O)CCCCCCNc4cccc5c4C(=O)N(C4CCC(=O)NC4=O)C5=O)c3)nc3ccccc3n12` (centres unmarked) [compound 4], the “BRD9 protein levels (degradation)” value at BRD9 is “no effect was observed”. The U937 cell viability result with U937 cells is reported as “did not observe variation in cell viability”.

The term IC50 denotes the concentration needed to halve the response being measured. Take `CCc1nnc2c(Nc3cccc(NC(C)=O)c3)nc3ccccc3n12` [compound 1]: the IC50 on BRD9 (BD1) [1] was 4.2 ± 1.92 µM. The “BRD9 protein levels (degradation)” value at BRD9 is listed as “only a slight reduction in BRD9 protein levels”. The U937 cell viability result in the series on U937 cells is reported as “minimally affected”.

For the compound `CCc1nnc2c(Nc3cccc(NC(=O)CCCCCCOCCOCC(=O)Nc4cccc5c4C(=O)N(C4CCC(=O)NC4=O)C5=O)c3)nc3ccccc3n12` (centres unmarked) [compound 8], the “BRD9 protein levels (degradation)” value at BRD9 is on record as “no effect was observed”. For the same compound, the U937 cell viability result in the series with U937 cells is listed as “did not observe variation in cell viability”.

Turning to `CCc1nnc2c(Nc3cccc(NC(=O)CCOCCOCCNc4cccc5c4C(=O)N(C4CCC(=O)NC4=O)C5=O)c3)nc3ccccc3n12` (centres unmarked) [compound 6], the “BRD9 protein levels (degradation)” value at BRD9 was “no effect was observed”. Moreover, the U937 cell viability entry with U937 cells is listed as “did not observe variation in cell viability”.

`CCc1nnc2c(Nc3cccc(NC(=O)CCOCCOCCOCCNc4cccc5c4C(=O)N(C4CCC(=O)NC4=O)C5=O)c3)nc3ccccc3n12` (centres unmarked) [compound 7]: at BRD9, the “BRD9 protein levels (degradation)” value was “no effect was observed”. In the series with U937 cells, the U937 cell viability result is recorded as “did not observe variation in cell viability”.

In the case of `CCc1nnc2c(Nc3cccc(NC(=O)CCCCCCOCCOCC(=O)N[C@H](C(=O)N4C[C@H](O)C[C@H]4C(=O)NCc4ccc(-c5scnc5C)cc4)C(C)(C)C)c3)nc3ccccc3n12` [compound 2], the “residual binding of histone H4” value on BRD9 (BD1) [2] (10 µM ligand concentration) came to 21.6 ± 0.3%. The IC50 at BRD9 (BD1) [2] (AlphaScreen, read-out: IC50, BRD9 binding) amounted to 2.97 ± 0.25 µM. Besides, in series [3], the “primary metabolites after incubation with HLMs” value is recorded as “dealkylation reactions”. Moreover, the recovery at 120 min in “Human plasma stability” was ≥ 90%. Moreover, the U937 cell viability result in the series with U937 cells is on record as “strong reduction of cell viability”.

Source of the values: publication PMC12172596, “Unveiling New Triazoloquinoxaline‐Based PROTACs Designed for the Selective Degradation of the ncBAF Chromatin Remodeling Subunit BRD9” (Chemistry (Weinheim an Der Bergstrasse, Germany), 2025).
